In the assay the target is T1, human mGluR2 (Homo sapiens, UniProt Q14416).
T1 construct: expressed in transfected cells
T1 sequence (Q14416 19-872): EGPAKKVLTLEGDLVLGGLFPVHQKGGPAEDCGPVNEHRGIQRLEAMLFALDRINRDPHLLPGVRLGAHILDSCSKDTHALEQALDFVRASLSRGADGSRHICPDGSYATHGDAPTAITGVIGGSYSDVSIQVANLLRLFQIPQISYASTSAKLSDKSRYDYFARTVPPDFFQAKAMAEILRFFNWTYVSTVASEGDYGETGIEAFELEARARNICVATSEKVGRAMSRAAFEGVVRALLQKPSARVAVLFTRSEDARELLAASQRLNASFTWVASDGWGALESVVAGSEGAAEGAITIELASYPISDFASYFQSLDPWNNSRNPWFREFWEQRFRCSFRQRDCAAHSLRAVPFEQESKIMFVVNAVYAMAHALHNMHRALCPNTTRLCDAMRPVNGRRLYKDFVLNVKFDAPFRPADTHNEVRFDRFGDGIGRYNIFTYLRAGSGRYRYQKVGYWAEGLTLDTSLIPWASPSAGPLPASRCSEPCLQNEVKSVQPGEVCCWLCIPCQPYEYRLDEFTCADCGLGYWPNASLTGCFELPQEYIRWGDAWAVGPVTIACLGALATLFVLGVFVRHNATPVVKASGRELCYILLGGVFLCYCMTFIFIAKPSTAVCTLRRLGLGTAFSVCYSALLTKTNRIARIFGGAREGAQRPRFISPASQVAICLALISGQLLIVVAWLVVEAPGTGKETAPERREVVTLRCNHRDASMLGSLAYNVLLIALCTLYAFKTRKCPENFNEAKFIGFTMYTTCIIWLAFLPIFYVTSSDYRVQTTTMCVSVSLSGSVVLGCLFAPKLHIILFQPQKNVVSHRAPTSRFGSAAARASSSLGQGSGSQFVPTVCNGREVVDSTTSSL
Description: FLIPR Ca2+ mobilization assay, potentiation of glutamate response. As to conditions: CHO dhfr- cells expressing human mGluR2 and Gα16; potentiation after EC20 glutamate (900 nM); read-out: Representative FLIPR EC50 Values: IC50. It is filed as cell-based. On the procedure:
Inhibition constants are determined as follows. The compounds of the present invention may be tested in a fluorescence laser imaging plate reader (FLIPR) based assay. This assay is a common functional assay to monitor Ca^2+ mobilization in whole cells expressing recombinant receptor coupled with a promiscuous G-protein. CHO dhfr− cells stably expressing recombinant human mGluR2 and Gα16 loaded with Fluo-4 AM (Invitrogen, Carlsbad Calif.) are treated with dose responses of compounds and the Ca^2+ response is monitored on a FLIPR384 (Molecular Devices, Sunnydale Calif.) for agonist activity. The potentiation response is monitored after a subsequent addition of an EC20 concentration of glutamate (900 nM). The maximum calcium response at each concentration of compound for agonist or potentiation are plotted as dose responses and the curves are fitted with a four parameters logistic equation giving EC50 and Hill coefficient using the iterative non linear curve fitting software program.
In general terms: Calcium flux is commonly read through the fluorescence of an indicator in the cells.
Regarding `CN1c2cc(-c3cc(Oc4ccnc(C#N)c4)ccc3C#N)ccc2N(CC2CC2(F)F)S1(=O)=O` (stereo not drawn) [Compound 12-4, 4-(4-cyano-3-{1-[(2,2-difluorocyclopropyl)methyl]-3-methyl-2,2-dioxido-1,3-dihydro-2,1,3-benzothiadiazol-5-yl}phenoxy) pyridine-2-carbonitrile], the EC50 came out at 0.5 nM. For `CN1c2cc(-c3cccc(CNc4ncccc4C#N)c3)ccc2N(CC2CC2)S1(=O)=O` [Compound 24-1, 2-({3-[1-(cyclopropylmethyl)-3-methyl-2,2-dioxido-1,3-dihydro-2,1,3-benzothiadiazol-5-yl]benzyl}amino)nicotinonitrile], the EC50 was 130 nM. In the case of `Cc1cccnc1-c1ccc2c(c1)N(C)S(=O)(=O)N2CC1CC1` [Compound 3-1, 1-(cyclopropylmethyl)-3-methyl-5-(3-methylpyridin-2-yl)-1,3-dihydro-2,1,3-benzothiadiazole 2,2-dioxide] it was 490 nM; in that of `CN1c2nc(-c3ccccc3C#N)ccc2N(CC(C)(C)C)S1(=O)=O` [Compound 30-2, 2-[1-(2,2-dimethylpropyl)-3-methyl-2,2-dioxido-1,3-dihydro[1,2,5]thiadiazolo[3,4-b]pyridin-5-yl]benzonitrile], 9 nM; in that of `CN1c2nc(-c3cccc(CN4CCS(=O)(=O)CC4)c3F)ccc2N(CC2CC2(F)F)S1(=O)=O` (stereo not drawn) [Compound 42-3, 1-[(2,2-difluorocyclopropyl)methyl]-5-{3-[(1,1-dioxidothiomorpholin-4-yl)methyl]-2-fluorophenyl}-3-methyl-1,3-dihydro [1,2,5]thiadiazolo[3,4-b]pyridine 2,2-dioxide], 9 nM. The same measure for `CC(=O)N1CCN(Cc2ccc(C)c(-c3ccc4c(n3)N(C)S(=O)(=O)N4CC3CC3(F)F)c2)CC1` (stereo not drawn) [Compound 39-2, 1-[4-(3-{1-[(2,2-difluorocyclopropyl)methyl]-3-methyl-2,2-dioxido-1,3-dihydro[1,2,5]thiadiazolo[3,4-b]pyridin-5-yl}-4-methylbenzyl)piperazin-1-yl]ethanone]: 11 nM. In the case of `Cc1ccc(CN2CCN(C(=O)[C@@H](C)O)CC2)cc1-c1ccc2c(n1)N(C)S(=O)(=O)N2CC1CC1(F)F` (stereo partly drawn) [Compound 43-3, (2R)-1-[4-(3-{1-[(2,2-difluorocyclopropyl)methyl]-3-methyl-2,2-dioxido-1,3-dihydro[1,2,5]thiadiazolo[3,4-b]pyridin-5-yl}-4-methylbenzyl)piperazin-1-yl]-2-hydroxypropan-1-one] it was 8 nM; in that of `CN1c2nc(-c3ccc(N4CCN(S(C)(=O)=O)CC4)cc3)ccc2N(CC2CC2(F)F)S1(=O)=O` (stereo not drawn) [Compound 32-2, 1-[(2,2-difluorocyclopropyl)methyl]-3-methyl-5-{4-[4-(methylsulfonyl)piperazin-1-yl]phenyl}-1,3-dihydro[1,2,5]thiadiazolo[3,4-b]pyridine 2,2-dioxide], 140 nM; in that of `CN1c2cc(-c3cc(C(C)(C)O)ccc3F)ccc2N(CC2CC2(F)F)S1(=O)=O` (stereo not drawn) [Compound 17-2], 22 nM.

For the molecule `CN1c2cc(-c3cccc(CN4CCN(S(C)(=O)=O)CC4)n3)ccc2N(CC2CC2(F)F)S1(=O)=O` (stereo not drawn) [Compound 25-2], the EC50 stood at 24 nM. `Cc1ccc(C(C)(C)O)cc1-c1ccc2c(n1)N(C)S(=O)(=O)N2CC1CC1` [Compound 38-3, 2-{3-[1-(cyclopropylmethyl)-3-methyl-2,2-dioxido-1,3-dihydro [1,2,5]thiadiazolo[3,4-b]pyridin-5-yl]-4-methylphenyl}propan-2-ol]: the EC50 is 25 nM. On to `CN1c2cc(-c3cccc(N4CCS(=O)(=O)CC4)c3)ccc2N(CC2CCC2)S1(=O)=O` [Compound 8-1, 1-(cyclobutylmethyl)-5-[3-(1,1-dioxidothiomorpholin-4-yl)phenyl]-3-methyl-1,3-dihydro-2,1,3-benzothiadiazole 2,2-dioxide], for which the EC50 amounted to 110 nM.

`CN1c2cc(-c3cc(CN4CCc5onc(O)c5C4)ccc3C#N)ccc2N(CC2CC2(F)F)S1(=O)=O` (stereo not drawn) [Compound 20-1, 2-{1-[(2,2-difluorocyclopropyl)methyl]-3-methyl-2,2-dioxido-1,3-dihydro-2,1,3-benzothiadiazol-5-yl}-4-[(3-hydroxy-6,7-dihydroisoxazolo[4,5-c]pyridin-5(4H)-yl)methyl]benzonitrile]: the EC50 was found to be 0.8 nM. On to `CN1c2nc(-c3cc(Oc4ccnc(C#N)c4)ccc3C#N)ccc2N(CC2CC2(F)F)S1(=O)=O` (stereo not drawn) [Compound 36-2, 4-(4-cyano-3-{1-[(2,2-difluorocyclopropyl)methyl]-3-methyl-2,2-dioxido-1,3-dihydro[1,2,5]thiadiazolo[3,4-b]pyridin-5-yl}phenoxy)pyridine-2-carbonitrile], for which the EC50 came to 3 nM. In the case of `CN1c2cc(-c3ccccc3C#N)ccc2N(CC2CC2)S1(=O)=O` [Compound 1-5, 2-[1-(cyclopropylmethyl)-3-methyl-2,2-dioxido-1,3-dihydro-2,1,3-benzothiadiazol-5-yl]benzonitrile], the EC50 worked out at 5 nM.

The term EC50 denotes the concentration at which the effect is half-maximal.

The values above are taken from patent US9108937B2 (Merck Sharp & Dohme Corp., priority 2010, dated 2015).
